Laboratory results from patent US9242970B2 (ACTELION PHARMACEUTICALS LTD., priority 2010, dated 2016).

Experiments:
rat [1] = conditions: cited from earlier work
rat [2] = conditions: rat model; cited from earlier work
rat [3] = conditions: cited from earlier work; remark: listed apart in the source
human orexin-2 receptor = human orexin-2 receptor (Homo sapiens (Human), UniProt O43614); experiment: In vitro assay: intracellular calcium measurements (FLIPR), antagonistic activity; assay type: cell-based; conditions: CHO cells, 3 nM orexin-A, compound incubation 120 min; marked values are geometric means of n = 2-6; read-out: IC50 OX2
human orexin-2 receptor, sequence (O43614 whole entry): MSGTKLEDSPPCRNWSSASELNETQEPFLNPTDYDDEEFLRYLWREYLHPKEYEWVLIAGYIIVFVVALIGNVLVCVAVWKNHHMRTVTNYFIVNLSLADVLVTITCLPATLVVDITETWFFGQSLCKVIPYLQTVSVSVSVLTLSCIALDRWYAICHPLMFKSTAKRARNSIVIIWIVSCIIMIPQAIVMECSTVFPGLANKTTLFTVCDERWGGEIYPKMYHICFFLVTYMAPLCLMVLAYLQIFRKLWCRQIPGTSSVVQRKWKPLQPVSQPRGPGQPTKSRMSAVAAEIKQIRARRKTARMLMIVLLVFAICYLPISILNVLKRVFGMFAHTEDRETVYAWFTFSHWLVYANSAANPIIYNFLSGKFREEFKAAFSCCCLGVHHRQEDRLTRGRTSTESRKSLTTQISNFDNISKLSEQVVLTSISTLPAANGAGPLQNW

human orexin-1 receptor = human orexin-1 receptor (Homo sapiens (Human), UniProt O43613); experiment: as above; assay type: cell-based; conditions: CHO cells, 3 nM orexin-A, compound incubation 120 min; marked values are geometric means of n = 2-6; read-out: IC50 OX1
human orexin-1 receptor, sequence (O43613 whole entry): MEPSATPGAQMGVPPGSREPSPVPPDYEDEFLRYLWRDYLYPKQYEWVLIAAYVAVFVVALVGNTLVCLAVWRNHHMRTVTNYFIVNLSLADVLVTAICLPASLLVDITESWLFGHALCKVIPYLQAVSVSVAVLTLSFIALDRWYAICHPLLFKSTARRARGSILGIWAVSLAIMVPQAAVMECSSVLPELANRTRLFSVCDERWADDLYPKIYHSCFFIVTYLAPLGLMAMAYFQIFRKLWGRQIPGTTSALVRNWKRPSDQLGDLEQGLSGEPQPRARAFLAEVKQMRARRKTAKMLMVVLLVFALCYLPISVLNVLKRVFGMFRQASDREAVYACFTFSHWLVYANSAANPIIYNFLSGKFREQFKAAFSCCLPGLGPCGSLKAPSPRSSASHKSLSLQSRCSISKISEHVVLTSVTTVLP

| Compound | IC50 (human orexin-2 receptor) | IC50 (human orexin-1 receptor) | other results |
| --- | --- | --- | --- |
| CNC(=O)[C@@H](c1ccccc1)N1CCc2cc(OC)c(OC)cc2[C@@H]1CCc1ccc(C(F)(F)F)cc1 [(2R)-2-{(1S)-6,7-dimethoxy-1-[2-(4-trifluoromethyl-phenyl)-ethyl]-3,4-dihydro-1H-isoquinolin-2-yl}-N-methyl-2-phenyl-acetamide] | – | – | alertness (active wake and locomotion) (rat [1]): decrease alertness; time spent in REM and NREM sleep (rat [1]): dose-dependently increase the time spent in both REM and NREM sleep; memory function (rat [2]): enhance memory function; activity in post-traumatic stress disorder model (rat [3]): active |
| COc1cc(CN2C(=O)C(C)CC2c2c(OC)cccc2OC)ccc1OC(F)F (centres unmarked) [Example 425, 1-(4-(difluoromethoxy)-3-methoxybenzyl)-5-(2,6-dimethoxyphenyl)-3-methylpyrrolidin-2-one] | 235 nM | 311 nM | – |
| COc1cccc(OC)c1C1CC(C)C(=O)N1Cc1ccc2sc3ccccc3c2c1 (centres unmarked) [Example 426, 1-(dibenzo[b,d]thiophen-2-ylmethyl)-5-(2,6-dimethoxyphenyl)-3-methylpyrrolidin-2-one] | 8 nM | 6 nM | – |
| COc1ccc2nc(C)oc2c1C1CCCC(=O)N1Cc1cccc(-c2ccccc2)c1 (centres unmarked) [Example 440, 1-([1,1′-biphenyl]-3-ylmethyl)-6-(6-methoxy-2-methylbenzo[d]oxazol-7-yl)piperidin-2-one] | 91 nM | 46 nM | – |
| COc1ccc2nc(C)oc2c1C1CCCC(=O)N1Cc1cccc(-c2csc(C)n2)c1 (centres unmarked) [Example 441, 6-(6-methoxy-2-methylbenzo[d]oxazol-7-yl)-1-(3-(2-methylthiazol-4-yl)benzyl)piperidin-2-one] | 62 nM | 16 nM | – |
| CCc1nc2ccc(OC)c(C3CCCC(=O)N3Cc3cccc(-c4csc(C)n4)c3)c2o1 (centres unmarked) [Example 442, 6-(2-ethyl-6-methoxybenzo[d]oxazol-7-yl)-1-(3-(2-methylthiazol-4-yl)benzyl)piperidin-2-one] | 33 nM | 10 nM | – |
| COc1ccc2c(c1C1CCCC(=O)N1Cc1cccc(-c3csc(C)n3)c1)OCCO2 (centres unmarked) [Example 443, 6-(6-methoxy-2,3-dihydrobenzo[b][1,4]dioxin-5-yl)-1-(3-(2-methylthiazol-4-yl)benzyl)piperidin-2-one] | 13 nM | 5 nM | – |
| COc1ccc2c(c1C1CCCC(=O)N1Cc1cccc(-c3ncc(C)s3)c1)OCCO2 (centres unmarked) [Example 444, 6-(6-methoxy-2,3-dihydrobenzo[b][1,4]dioxin-5-yl)-1-(3-(5-methylthiazol-2-yl)benzyl)piperidin-2-one] | 8 nM | 7 nM | – |
| COc1ccc2ccccc2c1C1CCCC(=O)N1Cc1cccc(-c2ncccn2)c1 (centres unmarked) [Example 445, 6-(2-methoxynaphthalen-1-yl)-1-(3-(pyrimidin-2-yl)benzyl)piperidin-2-one] | 90 nM | 21 nM | – |
| COc1ccc2ccccc2c1C1CCCC(=O)N1Cc1cccc(-c2ncc(C)s2)c1 (centres unmarked) [Example 446, 6-(2-methoxynaphthalen-1-yl)-1-(3-(5-methylthiazol-2-yl)benzyl)piperidin-2-one] | 59 nM | 12 nM | – |
| COc1ccc2ccccc2c1C1CCCC(=O)N1Cc1cccc(Oc2ccccc2)c1 (centres unmarked) [Example 447, 6-(2-methoxynaphthalen-1-yl)-1-(3-phenoxybenzyl)piperidin-2-one] | 92 nM | 112 nM | – |
| COc1ccc2c(c1C1CCCC(=O)N1Cc1cccc(-c3csc(C)n3)c1)OCO2 (centres unmarked) [Example 448, 6-(5-methoxybenzo[d][1,3]dioxol-4-yl)-1-(3-(2-methylthiazol-4-yl)benzyl)piperidin-2-one] | 11 nM | 17 nM | – |
| COc1ccc2c(c1C1CCCC(=O)N1Cc1ccc(OC(F)(F)F)cc1)OCO2 (centres unmarked) [Example 449, 6-(5-methoxybenzo[d][1,3]dioxol-4-yl)-1-(4-(trifluoromethoxy)benzyl)piperidin-2-one] | 23 nM | 351 nM | – |
| O=C1CCCCC(c2ccccc2-c2ccncc2)N1Cc1cccc(-c2nccs2)c1 (centres unmarked) [Example 450, 7-(2-(pyridin-4-yl)phenyl)-1-(3-(thiazol-2-yl)benzyl)azepan-2-one] | 15 nM | 561 nM | – |
| O=C1CCCCC(c2ccccc2-c2cncs2)N1Cc1cccc(-c2nccs2)c1 (centres unmarked) [Example 451, 1-(3-(thiazol-2-yl)benzyl)-7-(2-(thiazol-5-yl)phenyl)azepan-2-one] | 19 nM | 427 nM | – |
| O=C1CCCCC(c2ccccc2-c2cscn2)N1Cc1cccc(-c2nccs2)c1 (centres unmarked) [Example 452, 1-(3-(thiazol-2-yl)benzyl)-7-(2-(thiazol-4-yl)phenyl)azepan-2-one] | 15 nM | 105 nM | – |
| O=C1CCCCC(c2ccccc2-c2cccnc2)N1Cc1cccc(-c2nccs2)c1 (centres unmarked) [Example 453, 7-(2-(pyridin-3-yl)phenyl)-1-(3-(thiazol-2-yl)benzyl)azepan-2-one] | 93 nM | 381 nM | – |
| O=C1CCCCC(c2ccccc2-c2ccccc2)N1Cc1cccc(-c2nccs2)c1 (centres unmarked) [Example 454, 7-([1,1′-biphenyl]-2-yl)-1-(3-(thiazol-2-yl)benzyl)azepan-2-one] | 77 nM | 182 nM | – |
| COc1ccc2ncoc2c1C1CCCC(=O)N1Cc1cccc(-c2csc(C)n2)c1 (centres unmarked) [Example 455, 6-(6-methoxybenzo[d]oxazol-7-yl)-1-(3-(2-methylthiazol-4-yl)benzyl)piperidin-2-one] | 102 nM | 57 nM | – |
| O=C1CCCC(c2ccnn2-c2ccccc2)N1Cc1cccc(-c2ccccc2)c1 (centres unmarked) [Example 456, 1-([1,1′-biphenyl]-3-ylmethyl)-6-(1-phenyl-1H-pyrazol-5-yl)piperidin-2-one] | 716 nM | 654 nM | – |
| COc1ccc2c(c1C1CCCC(=O)N1Cc1cccc(-c3ccccc3)c1)OCO2 (centres unmarked) [Example 457, 1-([1,1′-biphenyl]-3-ylmethyl)-6-(5-methoxybenzo[d][1,3]dioxol-4-yl)piperidin-2-one] | 30 nM | 59 nM | – |
| COc1ccc2c(c1C1CCCC(=O)N1Cc1cccc(Oc3ccccc3)c1)OCO2 (centres unmarked) [Example 458, 6-(5-methoxybenzo[d][1,3]dioxol-4-yl)-1-(3-phenoxybenzyl)piperidin-2-one] | 14 nM | 142 nM | – |
| COc1ccc2c(c1C1CCCC(=O)N1Cc1csc(-c3ccccc3)n1)OCO2 (centres unmarked) [Example 459, 6-(5-methoxybenzo[d][1,3]dioxol-4-yl)-1-((2-phenylthiazol-4-yl)methyl)piperidin-2-one] | 40 nM | 108 nM | – |
| rac-(3R*,5S*)-(3-chloro-4-(trifluoromethoxy)benzyl)-5-(2-ethoxy-6-fluorophenyl)-3-hydroxypyrrolidin-2-one [Example 429] | 15 nM | 1160 nM | – |
